In patent US20240415152A1, “METHODS FOR IMPROVING HEALTH OF FISH, USE OF ZINC OXIDE PARTICLES FOR THE PREPARATION OF FISH FEED, METHODS FOR PREPARING FISH FEED FOR FISH, AND FISH FEED THEREOF” (City University of Hong Kong, priority 2023, published 2024):

Experiments:
Type in all cases: in vivo, Trachinotus ovatus
Details in all cases: dietary 60 mg/kg, 5 weeks
golden pompano = test: Growth performance (final weight, weight gain rate) after 5-week dietary exposure
Method: Fish exposure experiments were conducted in strict accordance with the Chinese Guidelines for Ethical Review of Laboratory Animal Welfare (GBIT 35892-2018). Three groups of golden pompanos (initial body wet weight of about 6 g) were randomly chosen and split after 14 days of acclimatization. There were three replicated net cages in Mirs Bay (Nanao, Shenzhen, China) for each group, with 30 fish in each duplicate. Each day, the experimental meals were given two-time (8:00 h, and 16:00 h) to golden pompano until satiation during the 5-week exposure experiment. The water was 29-32° C., dissolved oxygen 6.8-7.2 mg/L, and salinity 28-30‰ during dietary exposure.
After dietary exposure, all fish were starved for 24 h, and the ice-water was used to anesthetize fish from different groups. To avoid sample contamination during sampling, we first thoroughly disinfected the sampling table with 75% alcohol, and then spread a disposable tablecloth and disinfected it twice. All metal dissection tools were high-temperature sterilization. Each treatment group shared one set of dissection tools. After each set of samples, the disposable tablecloth was replaced and thoroughly sterilized for the following group sampling. The tubes (sterile and enzyme-free) for the temporary storage of samples were purchased from Corning. […] Fish's weights were measured immediately. […]

[1] = tested on: intestinal microorganism of golden pompano; test: Bacterial 16S ribosomal RNA gene sequencing of intestine content (ASV-based)
Text: DNA samples from the intestine content (only mucosa without the muscularis) were isolated using the MP Fast® SPIN DNA Kit. Each replicated sample contained 6 fish, resulting in 18 fish per treatment group. DNA extracts were amplified using primers (338F_806R) for the V3-V4 region of the 16S rRNA gene. Procedures for the DNA extracts and PCR amplification and then illuminma Miseq sequencing are described as follows.
DNA extraction and PCR amplification: The quality of DNA extraction was determined using 1% agarose gel electrophoresis, and DNA concentration and purity were determined using NanoDrop2000. […] The 16S rRNA gene V3-V4 variable region was amplified by PCR using 338F (5′-[…]-3′) and 806R (5′-[…]-3′). The amplification procedure was as follows: 95° C. pre-denaturation for 3 min, 27 cycles (95° C. denaturation for 30 s, 55° C. annealing for 30 s, 72° C. extension for 30 s), followed by 72° C. stable extension for 10 min and finally storage at 4° C. (PCR instrument: ABI GeneAmp® Model 9700). FastPfu buffer 4 μL, 2.5 mM dNTPs 2 μL, upstream primer (5 uM) 0.8 μL, downstream primer (5 uM) 0.8 μL, TransStart FastPfu DNA polymerase 0.4 μL, template DNA 10 ng, ddH2O make up to 20 μL. 3 replicates for each sample.
Illumina Miseq sequencing: PCR products from the same sample were mixed and recovered using a 2% agarose gel. Fluorometer (Promega, USA) was used to quantify the recovered products. Library construction was performed using NEXTflex™ Rapid DNA-Seq Kit (Bioo Scientific, USA): (1) splice linkage; (2) removal of splice self-linked fragments using magnetic bead screening; (3) enrichment of library template using PCR amplification; (4) recovery of PCR products by magnetic beads to obtain the final library. Sequencing was performed using Illumina's Miseq PE300 platform (Shanghai Meiji Biomedical Technology Co., Ltd.).
For Illumina Miseq PE300, products were pooled by sequencing equimolar and paired-end sequences (2×300) to obtain the raw data. Please see description for raw data stitching and optimization. After the PE reads obtained by MiSeq sequencing were split, the double-ended reads were first quality controlled and filtered according to the sequencing quality. Meanwhile, according to the overlapping relationship between double-ended reads, the optimized data after quality control splicing were obtained. […]
Raw data stitching and optimization: Fastp (version 0.20.0) software was used for quality control of the original sequencing sequence, and flash was used (version 1.2.7) software for splicing: (1) filter the bases with a mass value of less than 20 at the tail of reads and set a 50 bp window. […]

[2] = tested on: intestinal tissue of fish; test: In situ spatial quantitative analysis of intestinal tissue (HE sections, tissue cytometry)
Method: After dietary exposure, all fish were starved for 24 h, and the ice-water was used to anesthetize fish from different groups. To avoid sample contamination during sampling, we first thoroughly disinfected the sampling table with 75% alcohol, and then spread a disposable tablecloth and disinfected it twice. All metal dissection tools were high-temperature sterilization. Each treatment group shared one set of dissection tools. After each set of samples, the disposable tablecloth was replaced and thoroughly sterilized for the following group sampling. The tubes (sterile and enzyme-free) for the temporary storage of samples were purchased from Corning. Inc. The alcohol lamp was kept on throughout the sampling process. Fish's weights were measured immediately. All individual fish per net were swabbed using 75% alcohol. After that, we used a 1 mL disposable syringe to collect the blood from the caudal vertebra of the fish. The blood was quickly drawn into the pre-cooled 1.5 mL-centrifuge tubes (RNA-free tube). Then, all the blood samples were put in the 4° C. refrigerator for 24 h, and then centrifuged (4° C., 3000 r/min, 10 min) to obtain the serum samples for biochemical analysis. The blood-drawn fish were quickly dissected to obtain the gill, intestine content, intestine, liver, and muscle. Each replicated sample contained 6 fish, resulting in 18 fish per treatment group (with 3 replicates). All these samples were immediately frozen in liquid nitrogen and transferred to −80° C. refrigerator using dry ice, except the intestine for histomorphological study. For histomorphological analysis of the intestine, the tissues (3 fish per treatment group) were firstly dissected in the medical ice sheet. After 0.9% NaCl solution quick washing, the intestine tissues were fixed in the 4% paraformaldehyde (BL539A, Biosharp) for 48 h. The fixed intestinal samples were carefully transferred to 75% alcohol for long-term preservation.
The fixed intestine tissues were removed from the fixed liquid and then carefully trimmed with the ventilation cupboard. The trimmed tissues with different labels were placed in the dehydration box in the dehydrator (Donatello, DIAPATH) to dehydrate with gradient alcohol. The process was as follows: 75% alcohol 4 h, 85% alcohol 2 h, 90% alcohol 2 h, 95% alcohol 1 h, anhydrous ethanol I 30 min, anhydrous ethanol II 30 min, alcohol benzene 5˜10 min, xylene II 5˜10 min, 65° C. melting paraffin I1 h, 65° C. melting paraffin II 1 h, 65° C. melting paraffin Ill 1 h. The tissues were removed from the dehydration box and placed in the embedding frame of the embedding machine (JB-P5, Wuhan Junjie Electronics Co., Ltd), subsequently the frozen platform at −20° C. was used to cool the dewatering box. The solidified wax block was removed from the embedded frame and placed on the pathology slicer (RM2016, Shanghai Leica Instrument Co., Ltd) to obtain 4 μm slice thickness. The tissues were then flattened when the slice floated on the 40° C. warm water of the spreading machine. […]
In situ spatial quantitative identification of HE sections were imaged and analyzed by tissue cytometry. Briefly, the images were obtained on the TissueFAXS quantitative imaging system (TissueGnostics, Vienna, Austria). […] The scanned files were imported into the strataquest professional organization single-cell quantitative analysis system (v.7.0.1.176) for image processing and analysis. […]

## O=S(=O)([O-])[O-].[Zn+2] [ZnSO4, zinc sulphate]
Golden pompano
  WGR (weight gain rate): 268.78%
Golden pompano; initial body wet weight about 6 g
  final weight: 22.30 g
[1]
  genus-level differential microorganisms in fish intestine: significantly enriched Photobacterium and Mycoplasma
  main intestinal microorganisms at phylum level: Proteobacteria, Firmicutes and Cyanobacteria
  unique reads of microorganisms at ASV level (Venn diagram): 808
  unique reads of microorganisms at genus level (Venn diagram): 137
[2]
  intestinal villus area: reduced
  villus height distribution (changes in the fish villi intestine): 0.05-0.33 μm
[2]; compared with the other groups
  area of basal layer of fish intestine: reduced
  total number of goblet cells: reduced
  villus/crypt ratio (intestinal/crypt ratio): reduced
